Data published in paper PMC2114115 (The Journal of Cell Biology, 1986).

Tests used:
GH4C1 cells [1] = test: Acid/salt extraction: cellular distribution of receptor-bound 125I-EGF; assay type: cell-based, rat; settings: pulse-chase at 37 degrees C after binding 5 h at 4C, 80 pM (Fig. 2)
GH4C1 cells [2] = test: Release and degradation of cell-bound 125I-EGF; assay type: cell-based, rat; settings: 37C; for half-time for the release of 125I-tyrosine derived from receptor-bound 125I-EGF: Fig. 6, control cells or 0.1 mM chloroquine, 59 pM, 90 min binding; for subsequent rate of release of 125I-tyrosine from 125I-EGF: chloroquine 0.1 mM, leupeptin 0.1 mg/ml
GH4C1 cells [3] = test: Release and degradation of cell-bound [125I-Tyr1]SRIF; assay type: cell-based, rat; settings: for effect on receptor-mediated degradation of [125I-Tyr1]SRIF: Table V conditions, compound in dissociation medium, 60 min at 37C; for rate of dissociation or degradation of prebound [125I-Tyr1]SRIF / half-time of release of radioactivity after [125I-Tyr1]SRIF binding: 37C; for rate of dissociation or degradation of prebound [125I-Tyr1]SRIF: chloroquine 0.1 mM, leupeptin 0.1 mg/ml; for half-time of release of radioactivity after [125I-Tyr1]SRIF binding: Fig. 6, absence or presence of 0.1 mM chloroquine, or 0.1 mg/ml leupeptin, 35 pM, 60 min binding
[4] = system: SRIF receptors of GH4C1 cells; test: Specific binding of [125I-Tyr1]SRIF to GH4C1 cells; design: species or system rat; settings: for cellular accumulation of total or acid-resistant [125I-Tyr1]SRIF: ammonium chloride 20 mM, leupeptin 0.1 mg/ml; for [125I-Tyr1]SRIF bound, Total: Table III, control, leupeptin 0.1 mg/ml or chloroquine 0.1 mM
[5] = molecular target: EGF receptors of GH4C1 cells (Rattus norvegicus, UniProt G3V6K6); test: Specific binding of 125I-EGF to GH4C1 cells; settings: for amount of cell-associated 125I-EGF: Fig. 5, prolonged 37C binding incubations, chloroquine 0.1 mM, leupeptin 0.1 mg/ml
GH4C1 cells [6] = settings: 37C; cited from earlier work
GH4C1 cells [7] = settings: Koch and Schonbrunn, unpublished observations; cited from earlier work
GH4C1 cell membranes = test: Binding, dissociation and degradation of [125I-Tyr1]SRIF with cell membranes; design: species or system rat; settings: Table IV; dissociation incubation 4 h at 37C; without or with 100 nM SRIF
[8] = Table V Exp. 2, control or a2-macroglobulin 50 ug/ml

Compound: 125I-EGF: radioiodinated epidermal growth factor, chloramine T iodination
- half-time of transfer from acid-sensitive to acid-resistant compartment (GH4C1 cells [1]): 2 min
- half-time for the release of 125I-tyrosine derived from receptor-bound 125I-EGF (GH4C1 cells [2]): 45 min

Compound: O=S(=O)(F)Cc1ccccc1 [PMSF, phenylmethylsulfonyl fluoride]
- effect on receptor-mediated degradation of [125I-Tyr1]SRIF (GH4C1 cells [3]): same small effect

Compound: CC(C)C[C@H](NP(=O)(O)O[C@@H]1O[C@@H](C)[C@H](O)[C@@H](O)[C@H]1O)C(=O)N[C@@H](Cc1c[nH]c2ccccc12)C(=O)O [Phosphoramidon, phosphoramidon]
- effect on receptor-mediated degradation of [125I-Tyr1]SRIF (GH4C1 cells [3]): substantially inhibited

Compound: Cc1ccc(S(=O)(=O)NC(CCCCN)C(=O)CCl)cc1 [TLCK, Na-p-tosyl-L-lysine chloromethyl ketone]
- effect on receptor-mediated degradation of [125I-Tyr1]SRIF (GH4C1 cells [3]): same small effect

Compound: Cc1ccc(S(=O)(=O)N[C@@H](Cc2ccccc2)C(=O)CCl)cc1 [TPCK, L-l-tosylamide 2-phenylethyl chloromethyl ketone]
- effect on receptor-mediated degradation of [125I-Tyr1]SRIF (GH4C1 cells [3]): substantially inhibited

Compound: Cl.N [ammonium chloride]
- [125I-Tyr1]SRIF binding ([4]; 20 mM ammonium chloride, 4 h at 37C, same experiment): unaffected
- cellular accumulation of total or acid-resistant [125I-Tyr1]SRIF ([4]; 37C, chloroquine 0.1 mM): none of these inhibitors increased
- amount of 125I-EGF bound to cells ([5]; 20 mM ammonium chloride, 4 h at 37C): 210 % of untreated controls

Compound: O=C(O)c1cc[c]([Hg][Cl])cc1 [chloromercuribenzoate]
- effect on receptor-mediated degradation of [125I-Tyr1]SRIF (GH4C1 cells [3]): substantially inhibited

Compound: CCN(CC)CCCC(C)Nc1ccnc2cc(Cl)ccc12 (centres unmarked) [chloroquine]
- cellular accumulation of total or acid-resistant [125I-Tyr1]SRIF ([4]; 37C, chloroquine 0.1 mM): none of these inhibitors increased
- [125I-Tyr1]SRIF bound, Total ([4]; chase 30 min at 37C): 3,491 cpm
- [125I-Tyr1]SRIF bound, Total ([4]; chase 60 min at 37C): 1,725 cpm
- decrease in [125I-Tyr1]SRIF binding ([4]; chloroquine 0.1 mM, 37C, all times): 50%
- rate of dissociation or degradation of prebound [125I-Tyr1]SRIF (GH4C1 cells [3]): did not alter
- half-time of release of radioactivity after [125I-Tyr1]SRIF binding (GH4C1 cells [3]): 41 min
- subsequent rate of release of 125I-tyrosine from 125I-EGF (GH4C1 cells [2]): decreased
- half-time for the release of 125I-tyrosine derived from receptor-bound 125I-EGF (GH4C1 cells [2]): 150 min
- amount of cell-associated 125I-EGF [5]: increased

Compound: NC(=O)CI [iodoacetamide]
- effect on receptor-mediated degradation of [125I-Tyr1]SRIF (GH4C1 cells [3]): substantially inhibited

Compound: CC(=O)N[C@@H](CC(C)C)C(=O)N[C@@H](CC(C)C)C(=O)N[C@H](C=O)CCCNC(=N)N [leupeptin]
- cellular accumulation of total or acid-resistant [125I-Tyr1]SRIF ([4]; 37C, chloroquine 0.1 mM): none of these inhibitors increased
- [125I-Tyr1]SRIF bound, Total ([4]; chase 30 min at 37C): 5,537 cpm
- [125I-Tyr1]SRIF bound, Total ([4]; chase 60 min at 37C): 3,385 cpm
- rate of dissociation or degradation of prebound [125I-Tyr1]SRIF (GH4C1 cells [3]): did not alter
- half-time of release of radioactivity after [125I-Tyr1]SRIF binding (GH4C1 cells [3]): 48 min
- subsequent rate of release of 125I-tyrosine from 125I-EGF (GH4C1 cells [2]): decreased
- amount of cell-associated 125I-EGF [5]: increased

Compound: COc1ccc(C[C@H](N)C(=O)N[C@H]2[C@@H](O)[C@H](n3cnc4c(N(C)C)ncnc43)O[C@@H]2CO)cc1 [puromycin]
- effect on receptor-mediated degradation of [125I-Tyr1]SRIF (GH4C1 cells [3]): same small effect

Compound: a2-macroglobulin
- 125I released (GH4C1 cells [3]; [8]): 2,217 cpm
- % Intact [125I-Tyr1]SRIF (GH4C1 cells [3]; [8]): 64%
- effect on receptor-mediated degradation of [125I-Tyr1]SRIF (GH4C1 cells [3]): same small effect

Compound: bacitracin
- effect on receptor-mediated degradation of [125I-Tyr1]SRIF (GH4C1 cells [3]): same small effect

Compound: epidermal growth factor (NSYPGCPSSYDGYCLNGGVCMHIESLDSYTCNCVIGYSGDRCQTRDLRWWELR; not fully specified; Epidermal growth factor; UniProt P01132 977-1029, looked up) [EGF]
- time for transformation from acid-extractable to acid-resistant state (GH4C1 cells [6]): ≤ 10 min

Compound: somatostatin [SRIF]
- time to maximal inhibitory effect on hormone secretion (GH4C1 cells [7]): ≤ 5 min
- % Intact [125I-Tyr1]SRIF (GH4C1 cells [3]; Table V Exp. 1, SRIF 0.1 mM in dissociation medium): 65%
- effect on receptor-mediated degradation of [125I-Tyr1]SRIF (GH4C1 cells [3]): only a slight effect
- 125I bound (GH4C1 cell membranes): 9,695 cpm
- 125I dissociated (GH4C1 cell membranes): 10,791 cpm
